These compounds were tested against Neuraminidase (Influenza A virus, UniProt B4URF0) (assay: Inhibition of Influenza A virus neuraminidase activity).
Chain of Neuraminidase (B4URF0 whole entry): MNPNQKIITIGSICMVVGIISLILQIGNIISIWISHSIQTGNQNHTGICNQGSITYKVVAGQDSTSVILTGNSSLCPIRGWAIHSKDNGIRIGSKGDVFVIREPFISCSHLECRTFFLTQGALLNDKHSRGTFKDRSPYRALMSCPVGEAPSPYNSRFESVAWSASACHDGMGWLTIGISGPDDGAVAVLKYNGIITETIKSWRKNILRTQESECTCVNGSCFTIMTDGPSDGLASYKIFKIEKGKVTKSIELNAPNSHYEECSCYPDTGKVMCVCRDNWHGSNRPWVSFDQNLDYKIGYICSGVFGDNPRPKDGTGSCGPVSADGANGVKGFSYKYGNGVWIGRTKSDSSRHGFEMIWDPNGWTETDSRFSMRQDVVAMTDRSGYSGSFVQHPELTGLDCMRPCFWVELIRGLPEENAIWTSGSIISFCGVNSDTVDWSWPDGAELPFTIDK
COc1cc(Cl)nc(NC(=S)NC(=O)c2ccc(Cl)nc2)n1 gave an IC50 of over 20 µM. Work on CC(C)(C)NC(=O)NC(=S)NC(=O)c1c(F)cccc1F yielded an IC50 of 1.43 µM. In the case of Cc1cc(O)nc(NC(=S)NC(=O)c2ccc(-c3ccc([N+](=O)[O-])cc3)o2)n1, the IC50 is reported as 0.36 µM. Compound COc1cc(C)nc(NC(=S)NC(=O)c2ccc(Cl)nc2)n1 has an IC50 of over 20 µM. For COc1cc(C)nc(NC(=S)NC(=O)c2ccc(-c3ccccc3Cl)o2)n1, the IC50 was over 20 µM. COc1cc(OC)nc(NC(=S)NC(=O)c2ccc(-c3ccccc3Cl)o2)n1 showed an IC50 of 1.77 µM. CC(C)(C)NC(=O)NC(=S)NC(=O)c1ccccc1 showed an IC50 of 1.79 µM. With COc1cc(C)nc(NC(=S)NC(=O)c2ccc(-c3ccc([N+](=O)[O-])cc3)o2)n1 the IC50 was 1.22 µM. CCOc1cc(Cl)nc(NC(=S)NC(=O)c2ccc(-c3ccccc3Cl)o2)n1 showed an IC50 of over 20 µM. CCOc1cc(OCC)nc(NC(=S)NC(=O)c2cccnc2Cl)n1 was tested, and the IC50 was over 20 µM. Work on CC(C)(C)NC(=O)NC(=S)NC(=O)c1ccc(-c2ccc([N+](=O)[O-])cc2)o1 yielded an IC50 of 1.3 µM. With COc1cc(OC)nc(NC(=S)NC(=O)c2cccnc2)n1 the IC50 was over 20 µM. With COc1cc(Cl)nc(NC(=S)NC(=O)c2cccnc2Cl)n1 the IC50 was 2.59 µM. Cc1cc(O)nc(NC(=S)NC(=O)c2ccc(Cl)nc2)n1 showed an IC50 of 8.58 µM. Work on CC(C)[C@H](C(=O)NC(=S)NC(=O)NC(C)(C)C)c1ccc(Cl)cc1 yielded an IC50 of 1.35 µM. CCOc1cc(C)nc(NC(=S)NC(=O)c2ccc(-c3ccc([N+](=O)[O-])cc3)o2)n1 showed an IC50 of 2.3 µM. CCOc1cc(C)nc(NC(=S)NC(=O)c2ccc(-c3ccccc3Cl)o2)n1 was tested, and the IC50 was 1.65 µM. With CC(C)(C)NC(=O)NC(=S)NC(=O)COc1ccc(Cl)cc1Cl the IC50 was 1.67 µM. Cc1cc(C)nc(NC(=S)NC(=O)c2cccnc2Cl)n1 showed an IC50 of 7.19 µM. CC(C)(C)NC(=O)NC(=S)NC(=O)c1ccc(-c2ccccc2Cl)o1 was tested, and the IC50 was 1.42 µM. COc1cc(OC)nc(NC(=S)NC(=O)c2cnc(Cl)c(Cl)c2)n1 was tested, and the IC50 was 18.5 µM. In the case of O=C(NC(=S)Nc1nc(Cl)cc(Cl)n1)c1ccc(-c2ccccc2Cl)o1, the IC50 is reported as 14.5 µM. CCOc1cc(OCC)nc(NC(=S)NC(=O)c2ccc(-c3ccc([N+](=O)[O-])cc3)o2)n1 showed an IC50 of over 20 µM. CCOc1cc(OCC)nc(NC(=S)NC(=O)c2ccc(Cl)nc2)n1 was tested, and the IC50 was over 20 µM. For Cc1cc(O)nc(NC(=S)NC(=O)c2ccc(-c3ccccc3Cl)o2)n1, the IC50 was 0.32 µM. COC(=O)NC(=S)NC(=O)NC(C)(C)C showed an IC50 of 1.83 µM. CCOc1cc(OCC)nc(NC(=S)NC(=O)c2ccc(-c3ccccc3Cl)o2)n1 showed an IC50 of 0.08 µM. Compound CCOc1cc(Cl)nc(NC(=S)NC(=O)c2cccnc2Cl)n1 has an IC50 of over 20 µM. COc1cc(Cl)nc(NC(=S)NC(=O)c2ccc(-c3ccccc3Cl)o2)n1 gave an IC50 of 1.29 µM. CC(C)(C)NC(=O)NC(=S)NC(=O)[C@H]1[C@H](C=C(Cl)Cl)C1(C)C gave an IC50 of 0.26 µM. Work on CC(C)C(C(=O)NC(=S)Nc1nc(Cl)cc(Cl)n1)c1ccc(Cl)cc1 (stereo not given) yielded an IC50 of over 20 µM. Work on COc1cc(OC)nc(NC(=S)NC(=O)C2C(/C=C(\Cl)C(F)(F)F)C2(C)C)n1 (stereo not given) yielded an IC50 of 0.97 µM. CC(C)(C)NC(=O)NC(=S)NC(=O)[C@@H]1[C@H](/C=C(\Cl)C(F)(F)F)C1(C)C was tested, and the IC50 was 0.51 µM. COc1cc(OC)nc(NC(=S)NC(=O)COc2ccc(Cl)cc2Cl)n1 was tested, and the IC50 was 1.89 µM. Work on Cc1cc(C)nc(NC(=S)NC(=O)c2ccc(Cl)cc2F)n1 yielded an IC50 of 1.36 µM. For Cc1cc(C)nc(NC(=S)NC(=O)c2ccccc2)n1, the IC50 was 2.1 µM. In the case of COc1cc(Cl)nc(NC(=S)NC(=O)c2ccc(Cl)cc2F)n1, the IC50 is reported as 5.1 µM. With O=C(NC(=S)Nc1nc(Cl)cc(Cl)n1)c1ccc(-c2ccc([N+](=O)[O-])cc2)o1 the IC50 was 1.66 µM. Work on Cc1cc(C)nc(NC(=S)NC(=O)C2C(/C=C(\Cl)C(F)(F)F)C2(C)C)n1 (stereo not given) yielded an IC50 of 0.58 µM. Work on CCOc1cc(OCC)nc(NC(=S)NC(=O)C(c2ccc(Cl)cc2)C(C)C)n1 (stereo not given) yielded an IC50 of 0.31 µM.

Source: ChEMBL document CHEMBL1149766, “Quantitative structure activity relationship studies on thiourea analogues as influenza virus neuraminidase inhibitors” (Eur J Med Chem, 2008)
